Data published in publication PMC6277767, “Broad and Region-Specific Impacts of the Synthetic Cannabinoid CP 55,940 in Adolescent and Adult Female Mouse Brains” (Frontiers in Molecular Neuroscience, 2018).

System: CD1 female mouse brain lipidome
Test: Brain-region lipid levels (HPLC/MS/MS lipidomics) 2 h after single i.p. 3 mg/kg CP 55,940 vs vehicle
Format: in vivo
Settings: cerebellum
Procedure: The Bloomington Institutional Animal Care and Use Committee of Indiana University reviewed and approved the animal procedures. Female mice from the CD1 strain were utilized to match our study examining THC’s effects on the brain lipidome ([Leishman et al., 2018]). Mice were given a single i.p. injection of either 3 mg/kg CP or 1:1:18 cremophor:ethanol:saline vehicle (please refer to the section “3 mg/kg CP Is Relevant for Synthetic Cannabinoid Abuse and Has Stronger Effects on the Female Mouse Brain Lipidome During Adolescence” for a justification of dose and use of female mice). Three different age groups were given injections: PND 35 and PND 50 adolescents, and adult mice (PND 113). At least eight mice in each age group received CP and at least eight received vehicle. Matching the THC study time course ([Leishman et al., 2018]), mice were sacrificed via rapid decapitation 2 h after injection. Brains were immediately removed and flash-frozen in liquid nitrogen, and then stored at -80°C until dissections were performed. Brains were dissected on an ice-cold dissection plate into the following regions: STR, HIPP, CER, THAL, CTX, HYP, MID, and STEM. These abbreviations for these brain areas will be used exclusively when discussing the results generated by these specific dissections. Each dissected area was immediately placed in liquid nitrogen and then stored at -80°C until used for lipid extraction.
Tissue extracts were performed as previously described ([Bradshaw et al., 2006]; [Stuart et al., 2013]; [Raboune et al., 2014]; [Leishman et al., 2016a],[b], [2017], [2018]). First, samples were shock frozen in liquid nitrogen, weighed, and transferred to a centrifuge tube. The mass of the largest sample was multiplied by 50 to determine how many milliliters of HPLC-grade methanol (Fisher, Fair Lawn, NJ, United States) to add. Then, samples were spiked with 500 pmol deuterium-labeled NAGly (d8NAGly; Cayman Chemical, Ann Arbor, MI, United States). Samples were placed on ice in darkness for 2 h then individually homogenized and centrifuged at 19,000 × g for 20 min at 20°C. Supernatants were diluted with HPLC water (purified in house) to make a solution of 75% water, 25% supernatant. Lipids were partially purified on C18 solid phase extraction columns (Agilent, Palo Alto, CA, United States). A series of four elutions with 1.5 mL of 60%, 75%, 85%, and 100% methanol were collected ([Stuart et al., 2013]; [Leishman et al., 2016a],[b], [2018]).
As previously described ([Bradshaw et al., 2006]; [Tan et al., 2006]; [Smoum et al., 2010]; [Stuart et al., 2013]; [Tortoriello et al., 2013]; [Raboune et al., 2014]; [Leishman et al., 2016a],[b], [2017], [2018]), samples were analyzed using an Applied Biosystems API 3000 triple quadrupole mass spectrometer with electrospray ionization (Foster City, CA, United States). Using an Agilent XDB-C18 reversed phase analytical column and optimized mobile phase gradients, 20 μL from each elution were chromatographed. Two Shimadzu 10ADvp pumps (Columbia, MD, United States) provided the pressure for gradient elution. Mobile phase A: 20% methanol, 80% water (v/v) and 1 mM ammonium acetate (Sigma, St. Louis, MO, United States). Mobile phase B: 100% methanol, 1 mM ammonium acetate. Every method run began with 0% mobile phase B, reached 100% mobile phase B flowing at 0.2 mL/min, and gradually returned to 0% mobile phase B.
This screening library will be referred to as the lipidome when discussing data from this study. HPLC/MS/MS data were analyzed using Analyst software (Applied Biosystems) ([Bradshaw et al., 2006]; [Tan et al., 2006]; [Stuart et al., 2013]; [Tortoriello et al., 2013]; [Raboune et al., 2014]; [Leishman et al., 2016a],[b], [2017], [2018]). Chromatograms (Supplementary Figure 3) were generated by determining the retention time of analytes from the analytical column with a [M-1] or [M+1] parent peak and a fragmentation peak corresponding to the programmed values. […]

[1] = WT adult female mice, 3mg/kg CP 55,940

## CCCCCCC(C)(C)c1ccc([C@@H]2C[C@H](O)CC[C@H]2CCCO)c(O)c1 [CP 55,940]
[1]
  N-palmitoyl serine level, Mean: 5.77E-12
  N-palmitoyl tyrosine level, Mean: 9.82E-13
  N-palmitoyl valine level, Mean: 1.08E-13
  N-stearoyl GABA level, Mean: 1.12E-11
  N-stearoyl alanine level, Mean: 5.69E-12
  N-stearoyl ethanolamine level, Mean: 1.6E-11
  N-stearoyl glycine level, Mean: 1.62E-12
  N-stearoyl leucine level, Mean: 1.18E-12
  N-stearoyl methionine level, Mean: 3.32E-13
  N-stearoyl phenylalanine level, Mean: 2.74E-13
  N-stearoyl serine level, Mean: 1.52E-11
  Oleic acid level, Mean: 6.36E-10
  PGE2 level, Mean: 2.14E-10
  PhosphoLEA level, Mean: 4.64E-12
adult, 3 mg/kg CP 55,940
  2-arachidonoyl glycerol: Direction (relative to Veh): ↓
  2-arachidonoyl glycerol: Magnitude (x Veh level): 0.81 x Veh level
  2-linoleoyl glycerol: Direction (relative to Veh): ↓
  2-linoleoyl glycerol: Magnitude (x Veh level): 0.66 x Veh level
  2-oleoyl glycerol: Direction (relative to Veh): ↓
  2-oleoyl glycerol: Magnitude (x Veh level): 0.74 x Veh level
  6-ketoPGF1α: Direction (relative to Veh): ↓
  6-ketoPGF1α: Magnitude (x Veh level): 0.68 x Veh level
  Arachidonic acid: Direction (relative to Veh): ↓
  Arachidonic acid: Magnitude (x Veh level): 0.67 x Veh level
  Linoleic acid: Direction (relative to Veh): ↓
  Linoleic acid: Magnitude (x Veh level): 0.63 x Veh level
  N-arachidonoyl GABA: Direction (relative to Veh): ↓
  N-arachidonoyl GABA: Magnitude (x Veh level): 0.65 x Veh level
  N-arachidonoyl ethanolamine: Direction (relative to Veh): ↓
  N-arachidonoyl ethanolamine: Magnitude (x Veh level): 0.63 x Veh level
  N-arachidonoyl phenylalanine: Direction (relative to Veh): ↓
  N-arachidonoyl phenylalanine: Magnitude (x Veh level): 0.41 x Veh level
  N-arachidonoyl taurine: Direction (relative to Veh): ↓
  N-arachidonoyl taurine: Magnitude (x Veh level): 0.77 x Veh level
  N-docosahexaenoyl GABA: Direction (relative to Veh): ↓
  N-docosahexaenoyl GABA: Magnitude (x Veh level): 0.83 x Veh level
  N-docosahexaenoyl ethanolamine: Direction (relative to Veh): ↓
  N-docosahexaenoyl ethanolamine: Magnitude (x Veh level): 0.73 x Veh level
  N-linoleoyl GABA: Direction (relative to Veh): ↓
  N-linoleoyl GABA: Magnitude (x Veh level): 0.83 x Veh level
  N-linoleoyl ethanolamine: Direction (relative to Veh): ↓
  N-linoleoyl ethanolamine: Magnitude (x Veh level): 0.64 x Veh level
  N-oleoyl serine: Direction (relative to Veh): ↓
  N-oleoyl serine: Magnitude (x Veh level): 0.72 x Veh level
  N-oleoyl valine: Direction (relative to Veh): ↑
  N-oleoyl valine: Magnitude (x Veh level): 2.05 x Veh level
  N-palmitoyl tyrosine: Direction (relative to Veh): ↓
  N-palmitoyl tyrosine: Magnitude (x Veh level): 0.74 x Veh level
  Oleic acid: Direction (relative to Veh): ↓
  Oleic acid: Magnitude (x Veh level): 0.63 x Veh level
  PGE2: Direction (relative to Veh): ↓
